Laboratory results reported in patent publication US5043450A, “8-alkoxyquinolonecarboxylic acid and salts thereof” (priority 1986, dated 1991).
≈ marks a conversion by molar mass, not a printed value.

Assays:
Format in all cases: cell-based
Bacilus subtilis PCI 219 = test: Antibacterial spectra, MIC; details: Bacillus subtilis, PCI219
[1] = system: Staphylococcus aureus 209 P; test: Antibacterial spectra, MIC
[2] = system: S. aureus IID 670 (Terajima); test: Antibacterial spectra, MIC; details: Staphylococcus aureus, IID670
S. aureus Smith = test: Antibacterial spectra, MIC; details: Staphylococcus aureus
S. epidermidis IID 866 = test: Antibacterial spectra, MIC; details: Staphylococcus epidermidis, IID866
E. coli ML 4707 = test: Antibacterial spectra, MIC; details: Escherichia coli, ML4707; 10^6 cells/ml; Gram -
Protocol: (§1) The antibacterial test was carried out according to the method designated by Japan Society of Chemotherapy.

E. faecalis IID 682 = test: Antibacterial spectra, MIC; details: Enterococcus faecalis, IID682; 10^6 cells/ml; Gram +
Protocol: as §1

[3] = system: Proteus vulgaris IFO 3167; test: Antibacterial spectra, MIC; details: IFO3167, 10^6 cells/ml, Gram -
Protocol: as §1

Shigella sonnei IID 969 = test: Antibacterial spectra, MIC; details: IID969, 10^6 cells/ml, Gram -
Protocol: as §1

[4] = system: Streptococcus pyogenes (S-8); test: Antibacterial spectra, MIC; details: 10^6 cells/ml, Gram +
Protocol: as §1

S. pyogenes IID 692 = test: Antibacterial spectra, MIC; details: Streptococcus pyogenes, IID692
S. pneumoniae IID 552 = test: Antibacterial spectra, MIC; details: Streptococcus pneumoniae, IID552
[5] = system: Escherichia coli NIHJ JC-2; test: Antibacterial spectra, MIC; details: NIHJJC2
E. coli ATCC 10536 = test: Antibacterial spectra, MIC; details: Escherichia coli, ATCC10536
P. mirabilis IID 994 = test: Antibacterial spectra, MIC; details: Proteus mirabilis, IID994
[6] = system: Morganella morganii IID 602; test: Antibacterial spectra, MIC; details: IID602
[7] = system: Klebsiella pneumoniae KY(GN)6445; test: Antibacterial spectra, MIC
K. pneumoniae 1-220S = test: Antibacterial spectra, MIC; details: Klebsiella pneumoniae, 1220S
[8] = system: Enterobacter cloacae IID 977; test: Antibacterial spectra, MIC; details: IID977
[9] = system: Citrobacter freundii IID 976; test: Antibacterial spectra, MIC; details: IID976
[10] = system: Serratia marcescens IID 618; test: Antibacterial spectra, MIC; details: IID618
[11] = system: Salmonella enteritidis IID 604; test: Antibacterial spectra, MIC; details: Salmonella enterica
[12] = system: Pseudomonas aeruginosa V-1; test: Antibacterial spectra, MIC; details: V1
P. aeruginosa IFO 12689 = test: Antibacterial spectra, MIC; details: Pseudomonas aeruginosa, IFO12689
P. aeruginosa IID 1210 = test: Antibacterial spectra, MIC; details: Pseudomonas aeruginosa, IID1210; 10^6 cells/ml; Gram -; read-out: MIC
P. cepacia GIFU 518 = test: Antibacterial spectra, MIC; details: Burkholderia cepacia, GIFU518; 10^6 cells/ml; Gram -; read-out: MIC
P. maltophilia GIFU 2491 = test: Antibacterial spectra, MIC; details: Stenotrophomonas maltophilia, GIFU2491
[13] = system: Yersinia enterocolitica IID 981; test: Antibacterial spectra, MIC; details: IID981
[14] = system: Acinetobacter anitratus IID 876; test: Antibacterial spectra, MIC; details: Acinetobacter calcoaceticus, IID876
[15] = system: Alcaligenes faecalis 0114002; test: Antibacterial spectra, MIC; details: 10^6 cells/ml, Gram -, read-out: MIC
[16] = system: Bacteroides fragilis GM 7000; test: Antibacterial spectra, MIC; details: GM7000
B. fragilis 0558 = test: Antibacterial spectra, MIC; details: Bacteroides fragilis
B. fragilis 25285 = test: Antibacterial spectra, MIC; details: Bacteroides fragilis
B. distasonis 8503 = test: Antibacterial spectra, MIC; details: Parabacteroides distasonis
[17] = system: B. thetaiotaomicron (0661); test: Antibacterial spectra, MIC; details: Bacteroides thetaiotaomicron
B. vulgatus KYA 29327 = test: Antibacterial spectra, MIC; details: Phocaeicola vulgatus, KYA29327
[18] = system: Fusobacterium mortiferum 4249; test: Antibacterial spectra, MIC
F. necrophorum S-45 = test: Antibacterial spectra, MIC; details: Fusobacterium necrophorum, S45
F. varium KYA 8501 = test: Antibacterial spectra, MIC; details: Fusobacterium varium, KYA8501
[19] = system: Eubacterium lentum GAI 5242; test: Antibacterial spectra, MIC; details: Eggerthella lenta, GAI5242
[20] = system: Propionibacterium acens 11828; test: Antibacterial spectra, MIC
[21] = system: Peptococcus magnus KY 017; test: Antibacterial spectra, MIC; details: Finegoldia magna, KY017
C. perfringens KYA 13123 = test: microbe, parasite or virus in culture; details: Clostridium perfringens, KYA13123
C. ramosum = test: Antibacterial spectra, MIC; details: Thomasclavelia ramosa
[22] = system: Peptostreptococcus anaerobius KYA 27337; test: Antibacterial spectra, MIC; details: KYA27337
Pst. micros UPI 5464-1 = test: Antibacterial spectra, MIC; details: Parvimonas micra, UPI54641
[23] = system: Veillonella parvula KYA 10790; test: Antibacterial spectra, MIC; details: KYA10790

Question: For `CNCC1CCN(c2c(F)cc3c(=O)c(C(=O)O)cn(C4CC4)c3c2OC)C1` (centres unmarked) [Exp. 8, 1-cyclopropyl-6-fluoro-1,4-dihydro-8-methoxy-7-(3-methylaminomethyl-1-pyrrolidinyl)-4-oxo-3-quinolinecarboxylic acid], which MIC (Bacilus subtilis PCI 219) is on record?
Answer: Its MIC is 0.025 µg/mL (≈ 0.0642 µM).

Question: And the MIC [1]?
Answer: Its MIC is 0.05 µg/mL (≈ 0.128 µM).

Question: And the MIC [2]?
Answer: Its MIC is 0.05 µg/mL (≈ 0.128 µM).

Question: What about the MIC (S. aureus Smith) of the same compound?
Answer: The MIC was 0.05 µg/mL (≈ 0.128 µM).

Question: And the MIC (S. epidermidis IID 866)?
Answer: The MIC was 0.05 µg/mL (≈ 0.128 µM).

Question: What about the MIC (E. coli ML 4707) of the same compound?
Answer: The MIC was 0.05 µg/mL (≈ 0.128 µM).

Question: What about the MIC (E. faecalis IID 682) of the same compound?
Answer: The MIC was 0.05 µg/mL.

Question: And the MIC [3]?
Answer: Its MIC is 0.05 µg/mL (≈ 0.128 µM).

Question: And the MIC (Shigella sonnei IID 969)?
Answer: The MIC was 0.05 µg/mL (≈ 0.128 µM).

Question: What about the MIC [4] of the same compound?
Answer: Its MIC is 0.05 µg/mL.

Question: What about the MIC (S. pyogenes IID 692) of the same compound?
Answer: Its MIC is 0.05 µg/mL (≈ 0.128 µM).

Question: What about the MIC (S. pneumoniae IID 552) of the same compound?
Answer: The MIC was 0.05 µg/mL (≈ 0.128 µM).

Question: What about the MIC [5] of the same compound?
Answer: Its MIC is 0.025 µg/mL (≈ 0.0642 µM).

Question: And the MIC (E. coli ATCC 10536)?
Answer: Its MIC is 0.05 µg/mL (≈ 0.128 µM).

Question: What about the MIC (P. mirabilis IID 994) of the same compound?
Answer: The MIC was 0.05 µg/mL (≈ 0.128 µM).

Question: What about the MIC [6] of the same compound?
Answer: Its MIC is 0.39 µg/mL (≈ 1 µM).

Question: What about the MIC [7] of the same compound?
Answer: The MIC was 0.05 µg/mL (≈ 0.128 µM).

Question: What about the MIC (K. pneumoniae 1-220S) of the same compound?
Answer: The MIC was 0.1 µg/mL (≈ 0.257 µM).

Question: And the MIC [8]?
Answer: The MIC was 0.2 µg/mL (≈ 0.514 µM).

Question: What about the MIC [9] of the same compound?
Answer: Its MIC is 0.05 µg/mL (≈ 0.128 µM).

Question: And the MIC [10]?
Answer: Its MIC is 0.2 µg/mL (≈ 0.514 µM).

Question: What about the MIC [11] of the same compound?
Answer: Its MIC is 0.1 µg/mL (≈ 0.257 µM).

Question: And the MIC [12]?
Answer: The MIC was 0.78 µg/mL (≈ 2 µM).

Question: And the MIC (P. aeruginosa IFO 12689)?
Answer: The MIC was 3.13 µg/mL (≈ 8.04 µM).

Question: And the MIC (P. aeruginosa IID 1210)?
Answer: Its MIC is 12.5 µg/mL (≈ 32.1 µM).

Question: What about the MIC (P. cepacia GIFU 518) of the same compound?
Answer: The MIC was 1.56 µg/mL (≈ 4.01 µM).

Question: And the MIC (P. maltophilia GIFU 2491)?
Answer: Its MIC is 0.39 µg/mL (≈ 1 µM).

Question: What about the MIC [13] of the same compound?
Answer: The MIC was 0.1 µg/mL (≈ 0.257 µM).

Question: And the MIC [14]?
Answer: The MIC was 0.2 µg/mL (≈ 0.514 µM).

Question: And the MIC [15]?
Answer: The MIC was 1.56 µg/mL (≈ 4.01 µM).

Question: What about the MIC [16] of the same compound?
Answer: Its MIC is 0.39 µg/mL (≈ 1 µM).

Question: And the MIC (B. fragilis 0558)?
Answer: The MIC was 0.39 µg/mL (≈ 1 µM).

Question: What about the MIC (B. fragilis 25285) of the same compound?
Answer: Its MIC is 0.39 µg/mL (≈ 1 µM).

Question: What about the MIC (B. distasonis 8503) of the same compound?
Answer: Its MIC is 3.13 µg/mL (≈ 8.04 µM).

Question: And the MIC [17]?
Answer: Its MIC is 3.13 µg/mL (≈ 8.04 µM).

Question: And the MIC (B. vulgatus KYA 29327)?
Answer: Its MIC is 3.13 µg/mL (≈ 8.04 µM).

Question: What about the MIC [18] of the same compound?
Answer: Its MIC is 0.39 µg/mL (≈ 1 µM).

Question: And the MIC (F. necrophorum S-45)?
Answer: Its MIC is 0.39 µg/mL (≈ 1 µM).

Question: And the MIC (F. varium KYA 8501)?
Answer: The MIC was 3.13 µg/mL (≈ 8.04 µM).

Question: What about the MIC [19] of the same compound?
Answer: The MIC was 0.2 µg/mL (≈ 0.514 µM).

Question: And the MIC [20]?
Answer: Its MIC is 0.78 µg/mL (≈ 2 µM).

Question: What about the MIC [21] of the same compound?
Answer: Its MIC is ≤ 0.05 µg/mL.

Question: And the MIC (C. perfringens KYA 13123)?
Answer: The MIC was 0.2 µg/mL (≈ 0.514 µM).

Question: And the MIC (C. ramosum)?
Answer: The MIC was 0.39 µg/mL (≈ 1 µM).

Question: What about the MIC [22] of the same compound?
Answer: Its MIC is 0.2 µg/mL (≈ 0.514 µM).

Question: And the MIC (Pst. micros UPI 5464-1)?
Answer: The MIC was 0.39 µg/mL (≈ 1 µM).

Question: What about the MIC [23] of the same compound?
Answer: The MIC was 0.39 µg/mL (≈ 1 µM).
